The conditions of data set [1]: in vivo; cited from earlier work.
Data set [2] addresses C-terminal catalytic site of the Angiotensin I converting enzyme (recombinant ACE) (Homo sapiens, UniProt P12821). The experiment in a line: Inhibition of the C-terminal catalytic site of recombinant ACE (fluorogenic substrate). The data set is classed as biochemical. The procedure: (§1) The fractions from purification were submitted to mass spectrometry analysis to conforming the Evasins molar mass after purification. • The enzyme assays for the recombinant ACE inhibition were conducted using the substrate Mca-Ala-Ser-Asp-Lys-DpaOH, at 25° C., in a 50 mM Hepes buffer (pH 6.8), 200 mM NaCl and […] ZnCl2.

Data set [3] deals with anesthetized normotensive rats (WKY) blood pressure. The experiment in a line: Potentiation of the bradykinin hypotensive effect on anesthetized rat blood pressure. The data set is classed as in vivo. Particulars: for Bk potentiation(%): hypotension increase of a single bradykinin dose after 200 nmol of potentiator i.v., anesthetized rats; for Duration time: time to reduce the potentiating effect by 50%, 200 nmol/rat i.v., unit not given, minutes. On the procedure:
The potentiating activity of the bradykinin hypotensive effect was tested in anesthetized rats. Normotensive male rats (WKY) were anesthetized using pentobarbital sodium (Hypnol® Cristália, 50 mg/kg, intraperitoneal) and placed on a controlled-temperature board for maintaining the body temperature between 36.5° C. and 37° C. A polygraph coupled to a physiological transducer was used. The blood pressure ranging values were obtained by integrating the areas limited by the baseline pressure and comparing them to the values obtained from control assays. In in vivo assays, the potentiating activity of Evasins on the hypotensive effect of bradykinin on anesthetized rat blood pressure was observed. Two parameters were determined for comparison of the potentiating effects of bradykinin on the anesthetized rat blood pressure (n=5):
1) Intensity of the potentiating effect of the hypotensive activity of bradykinin on the anesthetized rats blood pressure: This value was defined as the hypotension percentage (%) increase caused by a single dose of bradykinin obtained after the infusion of 200 nmol of potentiator. 2) Potentiating effect length: Time required to reduce the potentiating effect on a single dose of bradykinin by 50%.

Data set [4] deals with non anesthetized hypertensive rat blood pressure. The experiment in a line: Blood pressure of non anesthetized hypertensive rat, i.v. bolus of Evasin. Conditions: 70 nmol/100 g of body weight, non-anesthetized hypertensive rats. The data set is classed as in vivo. The source says:
One day before the assay, the animals were subjected to a surgery for cannulation of the femoral artery and vein. The rats were anesthetized with ether and placed in dorsal decubitus on a surgical board. A small skin incision was made, thus separating the musculature for locating the femoral vasculonervous bunch. […] After insertion, the cannulas were tied to the bunch using a surgical line. Next, the cannulas were directed subcutaneously with the aid of a trocater to the scapular waist where they were exteriorized and secured using a suture line. The arterial cannula was used for recording the cardiovascular parameters and the venous cannula for administering the drugs.
The blood pressure and the heart rate were recorded one day after the femoral artery and vein cannulation. The assay was conducted with non-anesthetized animals with free movement. The rats pulsed arterial pressure (PAP), the mean arterial pressure (MAP) and heart rate (HR) were monitored by a computer, using a data acquisition system (BIOPAC). The data were collected during all the experiments.
Before the drug administration, the rats PBP, MBP and HR were monitored. After the bolus injection of Evasin in a total volume of 0.2 mL (NaCl 0.9% solution), the resulting hypotensive effect and the effect length were monitored. In this assay, standard doses of each peptide (70 nmol/100 g of body weight) were tested (n=4). […] Evasin-5a and the Evasin-7a produced a maximum MBP reduction of −19.17±4.36 mmHg and 13.00±2.78 mmHg respectively.

Data set [5] addresses N-terminal catalytic site of the Angiotensin I converting enzyme (recombinant ACE) (Homo sapiens, UniProt P12821). The experiment in a line: Inhibition of the N-terminal catalytic site of recombinant ACE (fluorogenic substrate). The data set is classed as biochemical. On the procedure:
as §1

In data set [6] the target is neutral endopeptidase (recombinant NEP) (Homo sapiens, UniProt P08473). The experiment in a line: Fluorometric assay of recombinant NEP inhibition. The class given is biochemical. On the procedure:
The fluorometric assays for the recombinant NEP inhibition were conducted using the substrate Abz-RL-EDDnp in a 50 mM Tris-HCl buffer, pH 7.5, at 37° C. […] The Evasins were pre-incubated with the enzyme before the substrate addition.
The inhibition constants (Ki) values were determined by means of the ratio of the apparent inhibition constant (Ki(app)) and the substrate Km (Salvesen and Nagase, 1990). In: Proteolytic enzymes a practical aproach, Beynon and Bond Eds Oxford University Press, England, 87-88).

Data set [7] relates to SHR and TGR(mREN2)L27 hypertensive rats blood pressure. The experiment in a line: Infusion of Evasin 5a in awake hypertensive rats of different strain. The data set is classed as in vivo, rat. Conditions: for decrease of the MAP: infusion 900 μg/100 g corporal weight/hour. The source says:
(§2) One day before the assay, the animals were subjected to a surgery for cannulation of the femoral artery and vein. The rats were anesthetized with ether and placed in dorsal decubitus on a surgical board. A small skin incision was made, thus separating the musculature for locating the femoral vasculonervous bunch. […] After insertion, the cannulas were tied to the bunch using a surgical line. Next, the cannulas were directed subcutaneously with the aid of a trocater to the scapular waist where they were exteriorized and secured using a suture line.
(§3) The blood pressure and the heart rate were recorded one day after the femoral artery and vein cannulation. The assay was conducted with non-anesthetized animals with free movement. The animals pulsed arterial pressure (PAP), the mean arterial pressure (MAP) and heart rate (HR) were monitored by a computer, using a data acquisition system (BIOPAC). The data were collected during all the experiments.
Before the drug administration, the rats PBP, MBP and HR were monitored during 60 minutes. During and after the infusion of the Evasin 5a, 900 μg/100 g corporal weight/hour in NaCl solution 0.9% (n=6), the cardiovascular parameters were registered. The administration of the evasin-5a in both strains produced the same decreased of the MAP 28±2.7 mmHg and 34±0.9 mmHg in the SHR and TGR (mREN2) L27 respectively. However, it was observed that the relevant difference in time duration effect after the infusion interruption was over 6 hours in the SHR and only 1 hour in the TGRs. These differences indicate important variations of the biochemical mechanisms of the Evasins 5a action with different degree for the renin angiotensin system activation.

The subject of data set [8] is awake hypertensive rat blood pressure. The experiment in a line: Blood pressure of awake hypertensive rat, free versus cyclodextrin-encapsulated Evasin. The data set is classed as in vivo. Particulars: bolus injection, 0.071 nmol/100 g of body weight, awake hypertensive rats.
Text: as §2, with “This example describes the inclusion compound administration effect between the Evasin-5a and hydroxiprolil-[…]-cyclodextrina BPβCD) on the blood pressure of the hypertensive rats. One” for “One”
as §3
Before the drug administration, the rats PBP, MBP and HR were monitored during 60 minutes. After the bolus injection of Evasin in a total volume of 0.2 mL (NaCl 0.9% solution), the resulting hypotensive effect and the effect length were monitored. […]

The conditions of data set [9]: cited from earlier work.
Data set [10] deals with rostro-ventrolateral medulla of freely moving rats. Conditions: free (not encapsulated), 25 to 50 ng; cited from earlier work.
Setting [11] is: recombinant ACE, substrate Mca-Ala-Ser-Asp-Lys-DpaOH, 25° C., pH 6.8, read-out: ECA - Ki, C-terminal.
[12] abbreviates: recombinant ACE, substrate Mca-Ala-Ser-Asp-Lys-DpaOH, 25° C., pH 6.8, read-out: ECA - Ki, N-terminal.
[13] abbreviates: recombinant NEP, substrate Abz-RL-EDDnp, pH 7.5, 37° C., read-out: NEP - Ki.

Like-named read-outs stand apart in the source and are kept apart here. Square brackets hold non-standard residues; d marks the D form. Peptide text beside a SMILES is read from it. pGlu = O=C1CC[C@@H](C(=O)O)N1

Chain of C-terminal catalytic site of the Angiotensin I converting enzyme (recombinant ACE) (P12821 643-1222 limits assumed, species assumed): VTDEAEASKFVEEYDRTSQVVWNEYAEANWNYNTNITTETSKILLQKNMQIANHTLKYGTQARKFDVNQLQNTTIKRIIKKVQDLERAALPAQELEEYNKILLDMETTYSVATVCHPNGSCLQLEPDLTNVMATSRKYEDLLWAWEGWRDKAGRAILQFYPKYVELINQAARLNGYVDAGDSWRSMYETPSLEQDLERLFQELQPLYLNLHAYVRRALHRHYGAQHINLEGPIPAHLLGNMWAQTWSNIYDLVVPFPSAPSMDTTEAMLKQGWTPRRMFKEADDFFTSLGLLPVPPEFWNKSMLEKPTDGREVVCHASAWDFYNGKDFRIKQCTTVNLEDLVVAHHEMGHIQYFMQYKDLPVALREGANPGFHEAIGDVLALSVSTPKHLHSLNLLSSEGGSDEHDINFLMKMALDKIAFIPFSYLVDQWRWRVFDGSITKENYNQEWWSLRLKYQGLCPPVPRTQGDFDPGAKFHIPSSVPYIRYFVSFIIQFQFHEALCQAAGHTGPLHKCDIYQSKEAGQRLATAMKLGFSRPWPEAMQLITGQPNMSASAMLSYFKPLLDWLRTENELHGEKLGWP
Chain of N-terminal catalytic site of the Angiotensin I converting enzyme (recombinant ACE) (P12821 40-624 limits assumed, species assumed): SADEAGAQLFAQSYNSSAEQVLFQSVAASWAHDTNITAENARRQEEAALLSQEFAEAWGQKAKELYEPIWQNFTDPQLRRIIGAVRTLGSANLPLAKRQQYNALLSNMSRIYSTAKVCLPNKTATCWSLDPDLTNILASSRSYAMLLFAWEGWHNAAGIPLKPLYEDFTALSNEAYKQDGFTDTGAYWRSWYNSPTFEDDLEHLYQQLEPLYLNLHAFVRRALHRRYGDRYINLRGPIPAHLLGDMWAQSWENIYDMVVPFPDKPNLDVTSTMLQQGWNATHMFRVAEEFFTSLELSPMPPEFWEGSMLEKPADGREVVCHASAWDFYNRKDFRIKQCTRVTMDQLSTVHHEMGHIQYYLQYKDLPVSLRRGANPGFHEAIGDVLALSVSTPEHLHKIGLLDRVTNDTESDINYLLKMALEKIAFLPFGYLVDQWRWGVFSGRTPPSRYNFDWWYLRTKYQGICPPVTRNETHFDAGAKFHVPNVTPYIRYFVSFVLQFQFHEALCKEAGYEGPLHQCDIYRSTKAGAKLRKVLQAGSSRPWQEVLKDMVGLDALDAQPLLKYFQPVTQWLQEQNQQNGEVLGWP
Chain of neutral endopeptidase (recombinant NEP) (P08473 whole entry, species assumed): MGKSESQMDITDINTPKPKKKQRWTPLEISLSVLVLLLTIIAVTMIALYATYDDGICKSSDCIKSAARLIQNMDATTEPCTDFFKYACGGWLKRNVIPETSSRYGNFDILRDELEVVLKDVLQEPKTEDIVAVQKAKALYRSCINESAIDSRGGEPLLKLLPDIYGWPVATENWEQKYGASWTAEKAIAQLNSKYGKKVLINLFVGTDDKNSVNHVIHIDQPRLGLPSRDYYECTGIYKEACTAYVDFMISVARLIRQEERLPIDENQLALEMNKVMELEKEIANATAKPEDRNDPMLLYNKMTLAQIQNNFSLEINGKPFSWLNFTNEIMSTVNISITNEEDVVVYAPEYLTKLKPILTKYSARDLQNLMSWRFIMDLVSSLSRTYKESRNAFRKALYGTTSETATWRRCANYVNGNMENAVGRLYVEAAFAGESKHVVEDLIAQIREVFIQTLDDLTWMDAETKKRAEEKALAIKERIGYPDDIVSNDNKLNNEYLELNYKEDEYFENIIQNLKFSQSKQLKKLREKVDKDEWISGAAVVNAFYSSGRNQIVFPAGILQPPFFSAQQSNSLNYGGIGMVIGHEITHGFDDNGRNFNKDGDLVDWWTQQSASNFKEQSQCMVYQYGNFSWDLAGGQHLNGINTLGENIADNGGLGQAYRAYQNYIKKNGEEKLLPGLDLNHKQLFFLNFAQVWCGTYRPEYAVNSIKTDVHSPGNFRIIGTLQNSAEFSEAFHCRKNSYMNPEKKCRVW

For `C[C@H](CS)C(=O)N1CCC[C@H]1C(=O)O` [Captopril], in data set [1], the “drug absorption time when administered alone” value is 1 h.
`C[C@H](NC(=O)[C@H](Cc1c[nH]c2ccccc12)NC(=O)[C@H](CCCCN)NC(=O)[C@@H]1CCC(=O)N1)C(=O)N1CCC[C@H]1C(=O)O` [EVASIN-5a, <EKWAP] ([pGlu]KWAP-OH; C-terminus assumed): the inhibitory constant (Ki) (usually a dissociation constant, usually derived from enzyme kinetics or from competition with a known ligand) in data set [2] (setting [11]) turned out to be 1.28 µM. For the same compound, in [3], the “Bk potentiation(%)” value was 102.5% and the Duration time is listed as 10. Moreover, in data set [4], the hypotensive effect length was determined as 37 min and the “reduction in the mean blood pressure (maximum)” value (“reduction … (maximum)” for short) is recorded as −19.17±4.36 mmHg. Further, the Ki in data set [5] (setting [12]) was 0.399 µM. The Ki in data set [6] (setting [13]) was found to be 550 µM. In data set [7] (SHR), the “time duration of effect after the infusion interruption” value is recorded as “over 6 hours” and the “decrease of the MAP” value was determined as 28±2.7 mmHg. Further, the “decrease of the MAP” value in data set [7] (TGR (mREN2) L27) was determined as 34±0.9 mmHg. Besides, the “time duration of effect after the infusion interruption” value in data set [7] (TGRs) is 1 h. Besides, in data set [8], the effect length came out at 38 min and the “maximum hypotensive effect, reduction of MAP” value was determined as 23±4.2 mmHg.
`CC[C@H](C)[C@H](NC(=O)[C@@H]1CCCN1C(=O)CNC(=O)[C@H](CC(=O)O)NC(=O)[C@@H]1CCC(=O)N1)C(=O)N1CCC[C@H]1C(=O)N1CCC[C@H]1C(=O)O` [EVASIN-7a, <EDGPIPP] ([pGlu]DGPIPP-OH; C-terminus assumed): the Ki in data set [2] (setting [11]) is 40 µM; in data set [5] (setting [12]), 70 µM; in data set [6] (setting [13]) it was 492 µM. For the same compound, the “Bk potentiation(%)” value in data set [3] amounted to 41.8%. Further, the Duration time in data set [3] was found to be 120. Besides, the hypotensive effect length entry in data set [4] was “more than 100 minutes”. For the same compound, the “reduction … (maximum)” value in [4] is 13.00±2.78 mmHg.
On to `CC[C@H](C)[C@H](NC(=O)[C@H](CCC(N)=O)NC(=O)[C@@H]1CCCN1C(=O)[C@H](CCCNC(=N)N)NC(=O)[C@@H]1CCCN1C(=O)[C@H](Cc1c[nH]c2ccccc12)NC(=O)[C@@H]1CCC(=O)N1)C(=O)N1CCC[C@H]1C(=O)N1CCC[C@H]1C(=O)O` [EVASIN-9a, <EWPRPQIPP], for which the values for the inhibition constant (Ki) in data set [2] (setting [11]), in data set [5] (setting [12]) and in data set [6] (setting [13]) were 0.001 µM, 0.1 µM and 86 µM, respectively. The compound further registered a hypotensive effect length in data set [4] of 84 min. Besides, the “reduction … (maximum)” value in data set [4] was −27.0±1.50 mmHg. Moreover, the “antihypertensive activity, intravenously” value in data set [9] (administered intravenously) was “has an antihypertensive activity”. For the same compound, the “antihypertensive activity, orally” value in data set [9] (given orally) was “inactive”.
As to `CC[C@H](C)[C@H](NC(=O)[C@H](CCC(N)=O)NC(=O)[C@@H]1CCCN1C(=O)[C@H](Cc1c[nH]cn1)NC(=O)[C@@H]1CCCN1C(=O)[C@H](Cc1c[nH]c2ccccc12)NC(=O)[C@H](CC(N)=O)NC(=O)[C@@H]1CCC(=O)N1)C(=O)N1CCC[C@H]1C(=O)N1CCC[C@H]1C(=O)O` [EVASIN-10c, <ENWPHPQIPP] ([pGlu]NWPHPQIPP-OH; C-terminus assumed), in data set [2], the Ki is 0.0005 µM. Moreover, the “selectivity for the C-terminal site” value in data set [2] (C-terminal versus N-terminal site of ACE) is recorded as 400 times. Also, in data set [3], the “Bk potentiation(%)” value is 195% and the Duration time came out at 95. Besides, in data set [4], the hypotensive effect length stood at 94 min and the “reduction … (maximum)” value is −29.5±9.50 mmHg. In addition, in data set [5], the Ki is 0.2 µM. Besides, in [6], the Ki was found to be 253 µM.
On to “Ang-(1-7) (DRVYIHP; Angiotensin 1-7; UniProt P01019 25-31, looked up) [free Ang-(1-7), angiotensinergic peptide, not encapsulated]”, for which, in data set [10], the “duration of the increase” value is given as “approximately 10 min” and the “increase of blood pressure” value was 15 mmHg.

These data come from patent US20080199503A1, “Pharmaceutical Compositions Preparation of Peptides, Secreted by the Snake Venom Glands, Particularly of Bothrops Jararaca, Vasopeptidases Inhibitors, Evasins, Their Analogues, Derivatives and Products Associated, Thereof, for Development of Applications and Use in Chronic-Degenerative Diseases” (priority 2002, published 2008).
